According to patent publication US11083725B2 (priority 2014, dated 2021):

System: NHBE cells
Test: Biolog metabolic array: substrate use by NHBE cells with or without CA09 infection
Type: cell-based, human
Settings: for Substrate use, 590 nm absorbance normalized to zero hour, 0 hr: Biolog PMM2, 0 hr; for Substrate use, 590 nm absorbance normalized to zero hour, 1 hr: Biolog PMM2, 1 hr; for Substrate use, 590 nm absorbance normalized to zero hour, 5 hr: Biolog PMM2, 5 hr; for Substrate use, 590 nm absorbance normalized to zero hour, 7 hr: Biolog PMM2, 7 hr
[1] = Control (uninfected) NHBE cells
[2] = Virus (CA09-infected, MOI 1) NHBE cells
[3] = Virus: CA09-infected NHBE cells, MOI 1, Biolog PMM2
[4] = Virus (CA09-infected NHBE cells, MOI 1)

Structure (SMILES) | 590 nm absorbance normalized to zero hour (substrate use), 1 hr [1] | 590 nm absorbance normalized to zero hour (substrate use), 3 hr [1] | 590 nm absorbance normalized to zero hour (substrate use), 4 hr [1] | 590 nm absorbance normalized to zero hour (substrate use), 6 hr [1] | 590 nm absorbance normalized to zero hour (substrate use), 8 hr [1] | 590 nm absorbance normalized to zero hour (substrate use), 9 hr [1] | 590 nm absorbance normalized to zero hour (substrate use), 10 hr [1] | 590 nm absorbance normalized to zero hour (substrate use), 11 hr [1] | Substrate use, 590 nm absorbance normalized to zero hour, 1 hr [1] | Substrate use, 590 nm absorbance normalized to zero hour, 5 hr [1] | Substrate use, 590 nm absorbance normalized to zero hour, 7 hr [1] | 590 nm absorbance normalized to zero hour (substrate use), 1 hr [3] | 590 nm absorbance normalized to zero hour (substrate use), 2 hr [3] | 590 nm absorbance normalized to zero hour (substrate use), 3 hr [3] | 590 nm absorbance normalized to zero hour (substrate use), 4 hr [3] | 590 nm absorbance normalized to zero hour (substrate use), 5 hr [3] | 590 nm absorbance normalized to zero hour (substrate use), 6 hr [3] | 590 nm absorbance normalized to zero hour (substrate use), 7 hr [3] | 590 nm absorbance normalized to zero hour (substrate use), 8 hr [3] | 590 nm absorbance normalized to zero hour (substrate use), 9 hr [3] | also measured
CC[C@H](O)C(=O)O (racemic) [D,L-a-Hydroxy-Butyric Acid] | 0.92 | 0.99 | 1.01 | 0.56 | 0.72 | 1.79 | 0.74 | 2.19 | 0.92 | 1.18 | 1.41 | 1.29 | 1.58 | 1.74 | 1.84 | 2.00 | 2.10 | 2.18 | 2.26 | 2.35 | 590 nm absorbance normalized to zero hour (substrate use), 0 hr [1]: 1.00; 590 nm absorbance normalized to zero hour (substrate use), 2 hr [1]: 1.05; Substrate use, 590 nm absorbance normalized to zero hour, 0 hr [1]: 1.00; 590 nm absorbance normalized to zero hour (substrate use), 0 hr [2]: 1.00; 590 nm absorbance normalized to zero hour (substrate use), 1 hr [2]: 1.29; 590 nm absorbance normalized to zero hour (substrate use), 2 hr [2]: 1.58; 590 nm absorbance normalized to zero hour (substrate use), 3 hr [2]: 1.74; 590 nm absorbance normalized to zero hour (substrate use), 4 hr [2]: 1.84; 590 nm absorbance normalized to zero hour (substrate use), 5 hr [2]: 2.00; 590 nm absorbance normalized to zero hour (substrate use), 6 hr [2]: 2.10; 590 nm absorbance normalized to zero hour (substrate use), 7 hr [2]: 2.18; 590 nm absorbance normalized to zero hour (substrate use), 8 hr [2]: 2.26; 590 nm absorbance normalized to zero hour (substrate use), 9 hr [2]: 2.35; 590 nm absorbance normalized to zero hour (substrate use), 10 hr [2]: 2.39; 590 nm absorbance normalized to zero hour (substrate use), 11 hr [2]: 2.21; 590 nm absorbance normalized to zero hour (substrate use), 0 hr [3]: 1.00; 590 nm absorbance normalized to zero hour (substrate use), 10 hr [3]: 2.39; 590 nm absorbance normalized to zero hour (substrate use), 11 hr [3]: 2.21
CC(O)CO (stereo not drawn) [1,2-Propanediol] | 1.28 | 1.17 | 1.19 | 0.68 | 1.12 | 1.22 | 1.15 | 1.18 | 1.28 | 1.27 | 1.17 | 1.95 | 2.44 | 2.83 | 2.94 | 3.29 | 3.55 | 3.75 | 3.87 | 4.24 | 590 nm absorbance normalized to zero hour (substrate use), 0 hr [1]: 1.00; 590 nm absorbance normalized to zero hour (substrate use), 2 hr [1]: 1.41; Substrate use, 590 nm absorbance normalized to zero hour, 0 hr [1]: 1.00; 590 nm absorbance normalized to zero hour (substrate use), 0 hr [2]: 1.00; 590 nm absorbance normalized to zero hour (substrate use), 1 hr [2]: 1.95; 590 nm absorbance normalized to zero hour (substrate use), 2 hr [2]: 2.44; 590 nm absorbance normalized to zero hour (substrate use), 3 hr [2]: 2.83; 590 nm absorbance normalized to zero hour (substrate use), 4 hr [2]: 2.94; 590 nm absorbance normalized to zero hour (substrate use), 5 hr [2]: 3.29; 590 nm absorbance normalized to zero hour (substrate use), 6 hr [2]: 3.55; 590 nm absorbance normalized to zero hour (substrate use), 7 hr [2]: 3.75; 590 nm absorbance normalized to zero hour (substrate use), 8 hr [2]: 3.87; 590 nm absorbance normalized to zero hour (substrate use), 9 hr [2]: 4.24; 590 nm absorbance normalized to zero hour (substrate use), 10 hr [2]: 4.34; 590 nm absorbance normalized to zero hour (substrate use), 11 hr [2]: 4.75; 590 nm absorbance normalized to zero hour (substrate use), 0 hr [3]: 1.00; 590 nm absorbance normalized to zero hour (substrate use), 10 hr [3]: 4.34; 590 nm absorbance normalized to zero hour (substrate use), 11 hr [3]: 4.75
CC(O)C(C)O (stereo not drawn) [2,3-Butanediol] | 1.23 | 1.61 | 1.58 | 0.83 | 1.93 | 2.09 | 2.19 | 2.33 | 1.23 | 1.83 | 1.84 | 1.66 | 1.65 | 0.31 | 0.33 | 0.38 | 0.40 | 0.42 | 0.43 | 0.45 | 590 nm absorbance normalized to zero hour (substrate use), 2 hr [1]: 1.54; 590 nm absorbance normalized to zero hour (substrate use), 1 hr [4]: 1.66; 590 nm absorbance normalized to zero hour (substrate use), 2 hr [4]: 1.65; 590 nm absorbance normalized to zero hour (substrate use), 3 hr [4]: 0.31; 590 nm absorbance normalized to zero hour (substrate use), 4 hr [4]: 0.33; 590 nm absorbance normalized to zero hour (substrate use), 5 hr [4]: 0.38; 590 nm absorbance normalized to zero hour (substrate use), 6 hr [4]: 0.40; 590 nm absorbance normalized to zero hour (substrate use), 7 hr [4]: 0.42; 590 nm absorbance normalized to zero hour (substrate use), 8 hr [4]: 0.43; 590 nm absorbance normalized to zero hour (substrate use), 9 hr [4]: 0.45; 590 nm absorbance normalized to zero hour (substrate use), 10 hr [4]: 0.42; 590 nm absorbance normalized to zero hour (substrate use), 11 hr [4]: 0.39; 590 nm absorbance normalized to zero hour (substrate use), 10 hr [3]: 0.42; 590 nm absorbance normalized to zero hour (substrate use), 11 hr [3]: 0.39
NCCO [2-Aminoethanol] | 1.30 | 1.12 | 1.15 | 0.46 | 1.06 | 1.03 | 1.05 | 1.07 | 1.30 | 1.24 | 1.07 | 1.65 | 2.01 | 2.38 | 2.50 | 2.74 | 2.88 | 3.01 | 3.12 | 3.41 | 590 nm absorbance normalized to zero hour (substrate use), 0 hr [1]: 1.00; Substrate use, 590 nm absorbance normalized to zero hour, 0 hr [1]: 1.00; 590 nm absorbance normalized to zero hour (substrate use), 0 hr [2]: 1.00; 590 nm absorbance normalized to zero hour (substrate use), 1 hr [2]: 1.65; 590 nm absorbance normalized to zero hour (substrate use), 2 hr [2]: 2.01; 590 nm absorbance normalized to zero hour (substrate use), 3 hr [2]: 2.38; 590 nm absorbance normalized to zero hour (substrate use), 4 hr [2]: 2.50; 590 nm absorbance normalized to zero hour (substrate use), 5 hr [2]: 2.74; 590 nm absorbance normalized to zero hour (substrate use), 6 hr [2]: 2.88; 590 nm absorbance normalized to zero hour (substrate use), 7 hr [2]: 3.01; 590 nm absorbance normalized to zero hour (substrate use), 8 hr [2]: 3.12; 590 nm absorbance normalized to zero hour (substrate use), 9 hr [2]: 3.41; 590 nm absorbance normalized to zero hour (substrate use), 10 hr [2]: 3.22; 590 nm absorbance normalized to zero hour (substrate use), 11 hr [2]: 3.78; 590 nm absorbance normalized to zero hour (substrate use), 0 hr [3]: 1.00; 590 nm absorbance normalized to zero hour (substrate use), 10 hr [3]: 3.22; 590 nm absorbance normalized to zero hour (substrate use), 11 hr [3]: 3.78
